Values of other authors in US9700048B2, “Agroformulation comprising copolymer of vinyllactam, N-alkyl acrylamide, and alkyl (meth)acrylate” (BASF SE, priority 2012, dated 2017).
Converted amounts (≈) assume the structure as drawn.

Conditions: at 20° C.

For `Cn1cc(C(=O)Nc2ccccc2-c2cc(F)c(F)c(F)c2)c(C(F)F)n1` [fluxapyroxad], which solubility in water is on record?
The solubility in water was 3.88 µg/mL (≈ 10.2 µM).
